In ChEMBL document CHEMBL1201862, “PubChem BioAssay data set” (2004):
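Interpolation was linear, between the two tested concentrations surrounding the appropriate level; five concentrations were tested over 48 hours in 96-well plates. Abbreviation: GI50, concentration required for 50% inhibition of growth.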 Activity calls are given as the source filed them. Rule as the data show it: active = GI50 up to about 1.1 µM and inactive = higher.

What was measured:
Assay in all cases: growth of human tumour cells (NCI), 48 h
ACHN = test system: ACHN
CAKI-1 = test system: CAKI-1
COLO 205 = test system: COLO 205
DU-145 = test system: DU-145
HCT-116 = test system: HCT-116
Hs-578T = test system: Hs-578T
K562 = test system: K562
MDA-MB-231 = test system: MDA-MB-231
Malme-3M = test system: Malme-3M
NCI-H460 = test system: NCI-H460
NCI-H522 = test system: NCI-H522
OVCAR-3 = test system: OVCAR-3
OVCAR-5 = test system: OVCAR-5
PC-3 = test system: PC-3
RPMI-8226 = test system: RPMI-8226
SK-OV-3 = test system: SK-OV-3
SR = test system: SR
SW-620 = test system: SW-620
T47D = test system: T47D
U-251 = test system: U-251

| SMILES | GI50 (ACHN) | GI50 (CAKI-1) | GI50 (COLO 205) | GI50 (DU-145) | GI50 (HCT-116) | GI50 (Hs-578T) | GI50 (K562) | GI50 (MDA-MB-231) | GI50 (Malme-3M) | GI50 (NCI-H460) | GI50 (NCI-H522) | GI50 (OVCAR-3) | GI50 (OVCAR-5) | GI50 (PC-3) | GI50 (RPMI-8226) | GI50 (SK-OV-3) | GI50 (SR) | GI50 (SW-620) | GI50 (T47D) | GI50 (U-251) |
| --- | --- | --- | --- | --- | --- | --- | --- | --- | --- | --- | --- | --- | --- | --- | --- | --- | --- | --- | --- | --- |
| CC(C)NC(=O)OCc1c(COC(=O)NC(C)C)c(-c2ccc[n+](COC(=O)C3CC3)c2)n2c1CCC2 | 20 µM (inactive) | 20.1 µM (inactive) | 70.5 µM (inactive) | 37.6 µM (inactive) | 60.5 µM (inactive) | 79.3 µM (inactive) | 32.6 µM (inactive) | > 100 µM (inactive) | > 100 µM (inactive) | 24.2 µM (inactive) | 27.1 µM (inactive) | > 100 µM (inactive) | > 100 µM (inactive) | 50.5 µM (inactive) | 60.4 µM (inactive) | 49.5 µM (inactive) | 3.51 µM (inactive) | > 100 µM (inactive) | 86.7 µM (inactive) | 56 µM (inactive) |
| CC[C@@]1(OC(=O)C(N)CCCCN)C(=O)OCc2c1cc1n(c2=O)Cc2cc3ccccc3nc2-1 (stereo partly drawn) | 0.0135 µM (active) | < 0.0152 µM (active) | 0.389 µM (active) | < 0.0199 µM (active) | 0.0415 µM (active) | 4.52 µM (inactive) | 0.103 µM (active) | 1.53 µM (inactive) | 0.196 µM (active) | < 0.01 µM (active) | 0.0454 µM (active) | 0.352 µM (active) | 0.238 µM (active) | 0.171 µM (active) | 0.0327 µM (active) | 0.105 µM (active) | < 0.01 µM (active) | 0.04 µM (active) | 0.0326 µM (active) | 0.0161 µM (active) |
| Cc1ccc(S(=O)(=O)NC(=O)Nc2nc[nH]n2)cc1 | > 100 µM (inactive) | > 100 µM (inactive) | > 100 µM (inactive) | > 100 µM (inactive) | > 100 µM (inactive) | > 100 µM (inactive) | > 100 µM (inactive) | > 100 µM (inactive) | > 100 µM (inactive) | > 100 µM (inactive) | > 100 µM (inactive) | > 100 µM (inactive) | > 100 µM (inactive) | > 100 µM (inactive) | > 100 µM (inactive) | > 100 µM (inactive) | > 100 µM (inactive) | > 100 µM (inactive) | > 100 µM (inactive) | > 100 µM (inactive) |
| Oc1cccnc1CN1CCCCC1 | > 100 µM (inactive) | > 100 µM (inactive) | > 100 µM (inactive) | > 100 µM (inactive) | > 100 µM (inactive) | > 100 µM (inactive) | > 100 µM (inactive) | > 100 µM (inactive) | > 100 µM (inactive) | > 100 µM (inactive) | > 100 µM (inactive) | > 100 µM (inactive) | > 100 µM (inactive) | > 100 µM (inactive) | > 100 µM (inactive) | > 100 µM (inactive) | > 100 µM (inactive) | > 100 µM (inactive) | > 100 µM (inactive) | > 100 µM (inactive) |
| COc1c2c(cc3c1-c1c(cc4c(c1OC)OCO4)C1OC3C(C)C1C)OCO2.COc1cc2c(c(OC)c1OC)-c1c(cc3c(c1OC)OCO3)C1OC2C(C)C1C (stereo not drawn) | > 100 µM (inactive) | > 100 µM (inactive) | > 100 µM (inactive) | 91.8 µM (inactive) | 87.3 µM (inactive) | > 100 µM (inactive) | 72.8 µM (inactive) | 8 µM (inactive) | > 100 µM (inactive) | 55.3 µM (inactive) | 61.4 µM (inactive) | 84.5 µM (inactive) | > 100 µM (inactive) | 37.8 µM (inactive) | 33 µM (inactive) | > 100 µM (inactive) | > 100 µM (inactive) | > 100 µM (inactive) | 26.1 µM (inactive) | > 100 µM (inactive) |
| COc1cccc(/C=C2\CCCCCC2=O)c1 | > 100 µM (inactive) | > 100 µM (inactive) | > 100 µM (inactive) | > 100 µM (inactive) | 80.7 µM (inactive) | > 100 µM (inactive) | 72.3 µM (inactive) | > 100 µM (inactive) | > 100 µM (inactive) | 52 µM (inactive) | > 100 µM (inactive) | > 100 µM (inactive) | > 100 µM (inactive) | > 100 µM (inactive) | 31 µM (inactive) | > 100 µM (inactive) | 26.7 µM (inactive) | > 100 µM (inactive) | > 100 µM (inactive) | 65.3 µM (inactive) |
| O=C1NC(SSC2=NNC3(C(=O)N2)c2ccccc2-c2ccccc23)=NNC12c1ccccc1-c1ccccc12 | > 10 µM (inactive) | > 10 µM (inactive) | > 10 µM (inactive) | > 10 µM (inactive) | > 10 µM (inactive) | > 10 µM (inactive) | > 10 µM (inactive) | > 10 µM (inactive) | > 10 µM (inactive) | > 10 µM (inactive) | > 10 µM (inactive) | > 10 µM (inactive) | > 10 µM (inactive) | > 10 µM (inactive) | > 10 µM (inactive) | > 10 µM (inactive) | > 10 µM (inactive) | > 10 µM (inactive) | > 10 µM (inactive) | > 10 µM (inactive) |
| CCC(c1ccc2cc(O)ccc2c1)C(C)(C)C(=O)O (stereo not drawn) | > 100 µM (inactive) | > 100 µM (inactive) | > 100 µM (inactive) | > 100 µM (inactive) | > 100 µM (inactive) | > 100 µM (inactive) | > 100 µM (inactive) | > 100 µM (inactive) | > 100 µM (inactive) | > 100 µM (inactive) | > 100 µM (inactive) | > 100 µM (inactive) | > 100 µM (inactive) | > 100 µM (inactive) | > 100 µM (inactive) | > 100 µM (inactive) | > 100 µM (inactive) | > 100 µM (inactive) | > 100 µM (inactive) | > 100 µM (inactive) |
| O=[N+]([O-])c1ccc(C[S+]([O-])Cc2ccccc2)cc1 (stereo not drawn) | > 100 µM (inactive) | > 100 µM (inactive) | > 100 µM (inactive) | > 100 µM (inactive) | > 100 µM (inactive) | > 100 µM (inactive) | > 100 µM (inactive) | > 100 µM (inactive) | > 100 µM (inactive) | > 100 µM (inactive) | > 100 µM (inactive) | > 100 µM (inactive) | > 100 µM (inactive) | > 100 µM (inactive) | > 100 µM (inactive) | > 100 µM (inactive) | > 100 µM (inactive) | > 100 µM (inactive) | > 100 µM (inactive) | > 100 µM (inactive) |
| COc1ccccc1NC(=O)CC(=O)N1N=C(C)C(/N=N/c2ccc(C(=O)O)cc2)C1=O (stereo not drawn) | > 100 µM (inactive) | > 100 µM (inactive) | > 100 µM (inactive) | > 100 µM (inactive) | > 100 µM (inactive) | > 100 µM (inactive) | > 100 µM (inactive) | > 100 µM (inactive) | > 100 µM (inactive) |  | > 100 µM (inactive) | > 100 µM (inactive) | > 100 µM (inactive) | > 100 µM (inactive) | > 100 µM (inactive) |  | > 100 µM (inactive) | > 100 µM (inactive) | > 100 µM (inactive) | > 100 µM (inactive) |
| OC(C/C(=N\N1CCCCC1)c1cccs1)(C(F)(F)F)C(F)(F)F | > 10 µM (inactive) | > 10 µM (inactive) | > 10 µM (inactive) | > 10 µM (inactive) | > 10 µM (inactive) | > 10 µM (inactive) | > 10 µM (inactive) | > 10 µM (inactive) | > 10 µM (inactive) | > 10 µM (inactive) | > 10 µM (inactive) | > 10 µM (inactive) |  | > 10 µM (inactive) | > 10 µM (inactive) | > 10 µM (inactive) | > 10 µM (inactive) | > 10 µM (inactive) | > 10 µM (inactive) | > 10 µM (inactive) |
| O=C(CCCN1CCC2(CC1)CC(=O)N(N1CCCCCC1)C2=O)c1ccccc1 | > 100 µM (inactive) | > 100 µM (inactive) | > 100 µM (inactive) | > 100 µM (inactive) | > 100 µM (inactive) | > 100 µM (inactive) | 70.8 µM (inactive) | > 100 µM (inactive) | > 100 µM (inactive) |  | > 100 µM (inactive) | > 100 µM (inactive) | > 100 µM (inactive) | > 100 µM (inactive) | > 100 µM (inactive) | > 100 µM (inactive) | 14.2 µM (inactive) |  | > 100 µM (inactive) | > 100 µM (inactive) |
| Cc1cc(CCC(=O)NCCNc2c3ccccc3nc3ccccc23)cc(C)c1O[Si](C)(C)C(C)(C)C | 1.66 µM (inactive) |  | 1.03 µM (active) | 1.1 µM (active) | 0.363 µM (active) | 2.01 µM (inactive) | 0.276 µM (active) | 13.1 µM (inactive) | 2.06 µM (inactive) | 0.762 µM (active) | 1.73 µM (inactive) | 1.96 µM (inactive) | 1.69 µM (inactive) | 1.55 µM (inactive) | 0.331 µM (active) | 1.61 µM (inactive) | 0.214 µM (active) | 0.215 µM (active) | 0.351 µM (active) | 0.312 µM (active) |
| Cc1ccc2nc(-c3ccc(-n4c(C)nc(=O)c(-c5ccc(F)cc5)c4C)cc3)sc2c1 | 14.6 µM (inactive) | 17.8 µM (inactive) | 4.97 µM (inactive) | 15.9 µM (inactive) | 11.9 µM (inactive) | 25.9 µM (inactive) | 10.8 µM (inactive) | 14.1 µM (inactive) | 14.5 µM (inactive) |  | 15.1 µM (inactive) | 13.9 µM (inactive) | 19.3 µM (inactive) | 12.4 µM (inactive) | 4.06 µM (inactive) | 15.1 µM (inactive) | 6.12 µM (inactive) | 21.6 µM (inactive) | 3.3 µM (inactive) | 15.5 µM (inactive) |
